Measurements reported in patent US20240043400A1, “Octahydroisoquinolinyl Derivatives” (UCB Biopharma SRL, priority 2020, published 2024).

How the values were obtained:
[1] = target: T1, CYP3A4 (Homo sapiens, UniProt P08684); assay: In vitro assessment of CYP3A4 inhibition potential using cryopreserved human microsomes; type: in vitro ADME; details: 20 μM compound, human microsomes 0.25 mg/ml, Table C; for % CYP3A4 inhibition: midazolam 2.5 μM; for inhibition at 15 min, 20 μM: human, cryopreserved human microsomes (pooled donors), probe midazolam 2.5 μM (1-hydroxymidazolam formation)
T1 construct: cryopreserved human microsomes (pooled donors); from tissue
T1 sequence (P08684 whole entry): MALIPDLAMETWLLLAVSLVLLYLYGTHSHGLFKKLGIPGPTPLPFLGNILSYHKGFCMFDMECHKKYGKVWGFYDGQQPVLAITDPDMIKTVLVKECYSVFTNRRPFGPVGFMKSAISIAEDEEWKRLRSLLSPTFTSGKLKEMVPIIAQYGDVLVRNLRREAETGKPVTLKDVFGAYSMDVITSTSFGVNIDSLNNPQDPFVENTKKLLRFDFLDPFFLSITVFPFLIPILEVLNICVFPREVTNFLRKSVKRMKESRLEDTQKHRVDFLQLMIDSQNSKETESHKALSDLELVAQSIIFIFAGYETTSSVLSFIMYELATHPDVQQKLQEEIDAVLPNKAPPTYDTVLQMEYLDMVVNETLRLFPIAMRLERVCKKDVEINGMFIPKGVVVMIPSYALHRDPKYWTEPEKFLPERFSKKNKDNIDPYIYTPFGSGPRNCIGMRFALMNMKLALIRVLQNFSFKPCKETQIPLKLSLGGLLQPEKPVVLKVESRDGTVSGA
Description: The objective of the human microsome assay is to characterize the inhibition potential of Compound of formula (I) by measuring the CYP3A4 activities after its co-incubation with midazolam, a specific CYP3A4 substrate.
To this aim, cryopreserved human microsomes (pooled donors) are divided on a 48 well collagen coated plate so that the final concentration is 0.25 mg/ml. The UCB compound is then added in the wells at 20 μM concentration in duplicate. After 30 min incubation, midazolam is added at 2.5 μM concentration. After 15 min, an aliquot is removed and placed into an equal volume of methanol containing internal standard. The samples are centrifuged at 2500 rpm at 4° C. for 20 min. An aliquot of supernatant is diluted with deionised water and levels of 1-hydroxymidazolam is quantified using generic LC MS/MS methods.
The concentrations are compared to those obtained after midazolam incubation at the same concentration but without UCB compound pre-incubation. The results are expressed as % of inhibition.

[2] = target: T2, human GABAA receptor α1β2 and γ2 subunits (Homo sapiens, UniProt P14867+P18507+P47870); assay: Automated patch clamp studies on the GABAA receptor cells; type: cell-based; details: 15 μM GABA, Table B; for % GABAA inhibition: 10 μM compound, CHO-K1 cells; for inhibition at 10 µM: CHO-K1, 10 μM compound
T2 construct: expressed in transfected cells
T2 sequence (P14867 28-456): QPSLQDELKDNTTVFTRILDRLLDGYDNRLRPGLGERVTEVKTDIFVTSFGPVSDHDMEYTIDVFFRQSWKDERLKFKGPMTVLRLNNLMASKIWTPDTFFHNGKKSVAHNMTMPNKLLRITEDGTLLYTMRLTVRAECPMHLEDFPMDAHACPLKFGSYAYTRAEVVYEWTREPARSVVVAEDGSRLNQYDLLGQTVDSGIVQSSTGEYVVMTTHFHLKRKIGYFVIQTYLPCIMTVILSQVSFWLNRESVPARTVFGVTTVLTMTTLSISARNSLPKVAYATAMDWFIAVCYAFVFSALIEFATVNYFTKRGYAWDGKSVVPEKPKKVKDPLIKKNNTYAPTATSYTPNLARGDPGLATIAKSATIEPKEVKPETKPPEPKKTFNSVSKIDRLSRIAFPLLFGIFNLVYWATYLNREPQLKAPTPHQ
T2 sequence (P47870 25-512 limits assumed): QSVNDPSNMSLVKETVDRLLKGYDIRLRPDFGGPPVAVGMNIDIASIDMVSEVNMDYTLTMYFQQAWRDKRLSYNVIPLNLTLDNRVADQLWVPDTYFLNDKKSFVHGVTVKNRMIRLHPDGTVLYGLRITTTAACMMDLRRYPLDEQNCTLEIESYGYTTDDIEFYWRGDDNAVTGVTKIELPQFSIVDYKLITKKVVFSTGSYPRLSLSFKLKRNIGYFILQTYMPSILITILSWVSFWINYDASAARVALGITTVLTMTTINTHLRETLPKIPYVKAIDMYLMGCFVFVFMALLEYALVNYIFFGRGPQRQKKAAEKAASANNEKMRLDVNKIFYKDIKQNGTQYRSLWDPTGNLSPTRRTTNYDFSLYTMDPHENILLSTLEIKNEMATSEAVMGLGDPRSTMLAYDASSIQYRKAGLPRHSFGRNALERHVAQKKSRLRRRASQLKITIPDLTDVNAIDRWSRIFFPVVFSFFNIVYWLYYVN
T2 sequence (P18507 40-475): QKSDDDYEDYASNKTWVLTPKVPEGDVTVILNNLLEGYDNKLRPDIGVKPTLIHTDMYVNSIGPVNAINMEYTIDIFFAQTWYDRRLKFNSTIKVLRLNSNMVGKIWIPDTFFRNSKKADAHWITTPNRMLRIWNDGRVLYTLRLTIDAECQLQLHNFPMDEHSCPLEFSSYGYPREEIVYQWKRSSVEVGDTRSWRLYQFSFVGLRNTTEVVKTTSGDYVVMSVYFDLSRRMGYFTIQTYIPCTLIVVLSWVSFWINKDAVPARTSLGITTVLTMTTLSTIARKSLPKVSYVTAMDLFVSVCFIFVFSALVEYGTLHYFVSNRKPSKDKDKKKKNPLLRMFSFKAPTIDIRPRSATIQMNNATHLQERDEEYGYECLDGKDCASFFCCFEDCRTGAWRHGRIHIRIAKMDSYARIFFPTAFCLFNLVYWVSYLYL
Description: CHO-K1 cells stably expressing human GABAA receptor α1β2 and γ2 subunits were used. The cells were harvested using trypsin and maintained in serum-free medium at room temperature. The cells were washed and re-suspended in extracellular solution before testing.
Experiments on human GABAA (α1β2γ2) channels were conducted using an automated patch clamp assay (lonFlux™ HT). The external solution for recording GABAA currents was composed of sodium chloride 137 mM, potassium chloride 4 mM, calcium chloride 1.8 mM, magnesium chloride 1 mM, HEPES 10 mM, and glucose 10 mM. Both external and internal solutions were titrated with NaOH or KOH to obtain a pH of 7.35 and 7.3, respectively. The internal pipette solution contained potassium fluoride 70 mM, potassium chloride 60 mM, sodium chloride 70 mM, HEPES 5 mM, EGTA 5 mM, and Magnesium ATP 4 mM. The final concentration of vehicle used to dilute compounds was 0.33% DMSO in each well. Bicuculline (0.032 to 100 μM) was used as positive control inhibitor. GABA (15 μM) was used as agonist. All recordings were obtained from a holding potential of −60 mV.
The compound addition sequence was the following: one addition of the EC80 concentration of GABA was added to establish baseline response. Each concentration of compound was applied for 30 seconds followed by the addition of 15 μM GABA in the presence of the compound for 2 seconds. The process was repeated with the next ascending concentration of compound. Peak inward currents in response to the GABA additions in the presence of a single concentration of compound were measured. All compound data have been normalized to the baseline peak current induced by addition of 15 μM GABA for 2 seconds.

[3] = target: T3, dopamine D1 receptor (Homo sapiens, UniProt P21728); assay: cAMP HTRF potentiation assay (in the presence of dopamine); type: cell-based; details: potentiation of cAMP with [EC20] of dopamine (1.1 nM); LMtk (Ltk−) mouse fibroblast cells expressing the dopamine D1 receptor
T3 construct: host or cells: LMtk (Ltk-) mouse fibroblast cells, kept under Geneticin
T3 sequence (P21728 whole entry): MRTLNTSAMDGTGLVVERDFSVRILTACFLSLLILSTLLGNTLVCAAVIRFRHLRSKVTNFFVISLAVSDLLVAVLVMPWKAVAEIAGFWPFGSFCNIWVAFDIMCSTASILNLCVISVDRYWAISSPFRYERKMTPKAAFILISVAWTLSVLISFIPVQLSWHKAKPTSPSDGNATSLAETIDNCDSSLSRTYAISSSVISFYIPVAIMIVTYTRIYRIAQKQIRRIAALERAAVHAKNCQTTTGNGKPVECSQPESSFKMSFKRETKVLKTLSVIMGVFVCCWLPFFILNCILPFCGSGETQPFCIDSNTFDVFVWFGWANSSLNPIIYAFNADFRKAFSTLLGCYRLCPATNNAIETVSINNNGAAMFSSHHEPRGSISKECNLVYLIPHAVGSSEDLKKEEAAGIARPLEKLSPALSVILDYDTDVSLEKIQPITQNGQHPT
Description: The potentiation assay measures the ability of compounds to increase the levels of cAMP produced by a low-threshold concentration of dopamine. The concentration of dopamine used ([EC20]) is designed to produce 20% stimulation compared to the maximal response (100%) seen with increasing the concentration of dopamine. To measure this potentiation we incubate increasing concentrations of the compound with the [EC20] of dopamine and measure the potentiation as increases in cAMP production. The pEC50 of a compound is the −log 10 of the concentration of the compound which produces 50% of the potentiation of the cAMP levels and the Erel is the relative efficacy, defined as the maximal % potentiation produced by the compound compared to the maximal response produced by increasing concentrations of dopamine (Erel of 1=dopamine maximum response).
Cells were cultured at 37° C. in a humidified atmosphere of 5% CO2. Cells were grown in DMEM-F12+GlutaMAX™-1 medium (GIBCO®, Invitrogen, Merelbeke, Belgium) containing 10% fetal bovine serum (BioWhittaker®, Lonza, Verviers, Belgium), 400 μg/mL Geneticin (GIBCO®), 100 IU/mL Penicillin and 100 IU/mL Streptomycin (Pen-Strep solution, BioWhittaker®).
The measurement of changes in intracellular cyclic adenosinemonophopshpate (cAMP) was determined using the HTRF cAMP dynamic assay kit from CisBio (Codolet, France). Using homogenous time-resolved fluoresence technology, the assay is based on competition between native cAMP produced by cells and cAMP labelled with the dye d2. The tracer binding is determined by an anti-cAMP antibody labeled with cryptate. The effects of the compound alone (agonism) was determined by performing the assay in the absence of dopamine, whilst the effect of the compound as a positive allosteric modulator (PAM) was determined in the presence of an EC20 concentration of dopamine. Cells (20,000 per well) are incubated in 384 plates for 1 h at rt in a final volume of 20 μLHBSS (Lonza, with calcium, magnesium and HEPES buffer 20 mM, pH 7.4) containing: isobutyl methylxanthine (Sigma, 0.1 mM final), varying concentrations of test compound (typically 10^−9.5 M to 10^−4.5 M) in the presence and absence of dopamine (1.1 nM final). The reaction is then terminated and the cells lysed by adding the d2 detection reagent in lysis buffer (10 μL) and the cryptate reagent in lysis buffer (10 μL) according to manufacturer's instructions. This is then incubated for a further 60 min at rt and changes in HTRF fluorescent emission ratio determined according to manufacturer's instructions using an Envision plate reader (Perkin Elmer, Zaventem, Belgium) with laser excitation. All incubations were performed in duplicate and results were compared to a concentration-effect curve to dopamine. (10^−11 M to 10^−6 M).
Data was analyzed using Excel and PRISM (GraphPad Software) to obtain pEC50 and Erel using the 4-parameter logistic equation (DeLean et al, 1978) where Erel is the fitted maximal response of the test compound minus basal expressed as a percentage relative to that obtained with dopamine which was defined as 100%.

% GABAA inhibition [2]	EC50 [3]	inhibition at 15 min, 20 μM [1]	inhibition at 10 µM [2]	Structure (SMILES)	% CYP3A4 inhibition [1]
10.9%	200 nM	–	–	COc1ccc(C#N)c(CC(=O)N2CC[C@@H]3[C@H](CCC[C@H]3C(O)C(F)F)[C@@H]2C)c1Cl (single isomer, unassigned) [Example 6-B]	++++ (A percentage of inhibition greater than about 20% and lower than or equal to about 40% is indicated by ++++.)
7.4%	251 nM	20 to 40%	–	COc1ccc(C#N)c(CC(=O)N2CC[C@@H]3[C@H](CCC[C@H]3C(C)(O)C(F)(F)F)[C@@H]2C)c1Cl (single isomer, unassigned) [Example 7-A]	–
–	15.8 nM	20 to 40%	9.6%	C[C@H]1[C@H]2CCC[C@@H]([C@H](O)C(F)(F)F)[C@@H]2CCN1C(=O)Cc1c(Cl)cnc(CO)c1Cl [Example 12, 1-[(1S,4aR,5R,8aS)-1-methyl-5-[(1 S)-2,2,2-trifluoro-1-hydroxy-ethyl]-3,4,4a,5,6,7,8,8a-octahydro-1H-isoquinolin-2-yl]-2-[3,5-dichloro-2-(hydroxymethyl)-4-pyridyl]ethanone]	–
–	25.1 nM	60 to 70%	13.8%	COc1ncc(Cl)c(CC(=O)N2CC[C@H]3[C@H]([C@H](O)C(F)(F)F)CCC[C@@H]3[C@@H]2C)c1Cl [Example 3, 1-[(1S,4aR,5R,8aS)-1-methyl-5-[(1S)-2,2,2-trifluoro-1-hydroxy-ethyl]-3,4,4a,5,6,7,8,8a-octahydro-1H-isoquinolin-2-yl]-2-(3,5-dichloro-2-methoxypyridin-4-yl)ethanone]	–
–	31.6 nM	40 to 60%	-8%	C[C@H]1[C@H]2CCC[C@@H]([C@H](O)C(F)(F)F)[C@@H]2CCN1C(=O)Cc1c(Cl)cc(F)c2[nH]nc(Cl)c12 [Example 14, 1-[(1 S,4aR,5R,8aS)-1-methyl-5-[(1 S)-2,2,2-trifluoro-1-hydroxy-ethyl]-3,4,4a,5,6,7,8,8a-octahydro-1H-isoquinolin-2-yl]-2-(3,5-dichloro-7-fluoro-1H-indazol-4-yl)ethanone]	–
−14.1%	39.8 nM	20 to 40%	–	CC(O)c1ncc(Cl)c(CC(=O)N2CC[C@H]3[C@H]([C@H](O)C(F)(F)F)CCC[C@@H]3[C@@H]2C)c1Cl (single isomer, unassigned) [Example 9-A]	–
–	31.6 nM	60 to 70%	11.2%	COc1ccc(C#N)c(CC(=O)N2CC[C@H]3[C@H]([C@H](O)C(F)(F)F)CCC[C@@H]3[C@@H]2C)c1Cl [Example 1-A, 2-[2-[(1S,4aR,5R,8aS)-1-methyl-5-[(1S)-2,2,2-trifluoro-1-hydroxy-ethyl]-3,4,4a,5,6,7,8,8a-octahydro-1H-isoquinolin-2-yl]-2-oxo-ethyl]-3-chloro-4-methoxybenzonitrile]	–
2.0%	79.4 nM	20 to 40%	–	C[C@H]1[C@H]2CCCC([C@@H](O)C(F)(F)F)[C@@H]2CCN1C(=O)Cc1c(Cl)ccc2c1c(Cl)nn2C (single isomer, unassigned) [Example 8-A]	–
–	12.6 nM	20 to 40%	8.5%	C[C@H]1[C@H]2CCC[C@@H]([C@H](O)C(F)(F)F)[C@@H]2CCN1C(=O)Nc1c(Cl)cccc1Cl [Example 10, (1S,4aR,5R,8aS)—N-(2,6-dichlorophenyl)-1-methyl-5-[(1S)-2,2,2-trifluoro-1-hydroxy-ethyl]-3,4,4a,5,6,7,8,8a-octahydro-1H-isoquinoline-2-carboxamide]	–
–	50.1 nM	20 to 40%	8.6%	COc1ccc(C#N)c(CC(=O)N2CC[C@@H]3[C@H](CCC[C@H]3C(O)C(F)F)[C@@H]2C)c1Cl (single isomer, unassigned) [Example 6-A]	–
−8.4%	25.1 nM	–	–	CC(O)c1ncc(Cl)c(CC(=O)N2CC[C@H]3[C@H]([C@H](O)C(F)(F)F)CCC[C@@H]3[C@@H]2C)c1Cl (single isomer, unassigned) [Example 9-B]	++++ (A percentage of inhibition greater than about 20% and lower than or equal to about 40% is indicated by ++++.)
–	398 nM	40 to 60%	4.9%	COc1ccc(C#N)c(CC(=O)N2CC[C@H]3[C@H]([C@@H](O)C(F)(F)F)CCC[C@@H]3[C@@H]2C)c1Cl [Example 1-B, 2-[2-[(1S,4aR,5R,8aS)-1-methyl-5-[(1R)-2,2,2-trifluoro-1-hydroxy-ethyl]-3,4,4a,5,6,7,8,8a-octahydro-1H-isoquinolin-2-yl]-2-oxo-ethyl]-3-chloro-4-methoxybenzonitrile]	–
−1.2%	126 nM	–	–	C[C@H]1[C@H]2CCCC([C@@H](O)C(F)(F)F)[C@@H]2CCN1C(=O)Cc1c(Cl)ccc2c1c(Cl)nn2C (single isomer, unassigned) [Example 8-B]	+++ (A percentage of inhibition greater than about 40% and lower than or equal to about 60% is indicated by +++.)
–	63.1 nM	70 to 80%	6%	C[C@H]1[C@H]2CCC[C@@H]([C@H](O)C(F)(F)F)[C@@H]2CCN1C(=O)Cc1c(Cl)ccc2nnc(Cl)n12 [Example 11, 1-[(1 S,4aR,5R,8aS)-1-methyl-5-[(1 S)-2,2,2-trifluoro-1-hydroxy-ethyl]-3,4,4a,5,6,7,8,8a-octahydro-1H-isoquinolin-2-yl]-2-(3,6-dichloro-[1,2,4]triazolo[4,3-a]pyridin-5-yl)ethanone]	–
